In US6737383B1, “Herbicidal oxadiazolidines” (priority 1999, dated 2004):

Tests used:
Alexandergrass = assay: Test D Alexandergrass; format: in vivo, Brachiaria plantaginea; conditions: Preemergence, 0 to 100 scale
In short: (§1)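 Seeds were sown in greenhouse pots, one species per pot or compartment. Compounds were in a non-phytotoxic solvent mixture with surfactant; preemergence applications went on the sandy loam surface within one day of planting. Injury was rated visually after 14 to 21 days, 0 (none) to 100 (complete control).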

bermuda-grass = assay: Test D bermudagrass; format: in vivo, Cynodon dactylon; conditions: Preemergence, 0 to 100 scale
In short: as §1

common pursiane = assay: Test D common purslane; format: in vivo, Portulaca oleracea; conditions: Preemergence, 0 to 100 scale
In short: as §1

common ragweed = assay: Test D common ragweed; format: in vivo, Ambrosia elatior; conditions: Preemergence, 0 to 100 scale
In short: as §1

dallisgrass = assay: Test D dallisgrass; format: in vivo, Paspalum dilatatum; conditions: Preemergence, 0 to 100 scale
In short: as §1

goosegrass = assay: Test D goosegrass; format: in vivo, Eleusine indica; conditions: Preemergence, 0 to 100 scale
In short: as §1

guineagrass = assay: Test D guineagrass; format: in vivo, Panicum maximum; conditions: Preemergence, 0 to 100 scale
In short: as §1

itchgrass = assay: Test D itchgrass; format: in vivo, Rottboellia exaltata; conditions: Preemergence, 0 to 100 scale
In short: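 Scoring used a 0–100 visual injury scale, with 0 meaning no effect and 100 complete control, assessed 14–21 days after application alongside untreated pots. Preemergence treatments went onto sandy loam surfaces of separately potted seeds within a day of sowing.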

Johnson grass = assay: Test D Johnson grass; format: in vivo, Sorghum halepense; conditions: Preemergence, 0 to 100 scale
In short: as §1

large crabgrass = assay: Test D large crabgrass; format: in vivo, Digitaria sanguinalis; conditions: Preemergence, 0 to 100 scale
In short: as §1

pitted morningglory = assay: Test D pitted morningglory; format: in vivo, Ipomoea lacunosa; conditions: Preemergence, 0 to 100 scale
In short: as §1

purple nutsedge = assay: Test D purple nutsedge; format: in vivo, Cyperus rotundus; conditions: Preemergence, 0 to 100 scale
In short: as §1

surinam grass = assay: Test D surinam grass; format: in vivo, Brachiaria decumbens; conditions: Preemergence, 0 to 100 scale
In short: as §1

tall mallow = assay: Test D tall mallow; format: in vivo, Malva sylvestris; conditions: Preemergence, 0 to 100 scale
In short: as §1

Green foxtail [1] = assay: Test D green foxtail; format: in vivo; conditions: Preemergence, 0 to 100 scale
In short: as §1

Green foxtail [2] = assay: Test D green foxtail; format: in vivo
In short: as §1

[3] = Rate 16 g/ha, 0 no injury, 100 complete control
[4] = Rate 32 g/ha, 0 no injury, 100 complete control
[5] = Rate 64 g/ha, 0 no injury, 100 complete control
[6] = Rate 125 g/ha, 0 no injury, 100 complete control
[7] = Rate 64 g/ha, Preemergence; 0 to 100 scale, 0 no injury, 100 complete control
[8] = Rate 125 g/ha, Preemergence; 0 to 100 scale, 0 no injury, 100 complete control

CC(C)N(C(=O)n1oc(=O)n(C2CC2)c1=O)c1ccc(F)cc1 [Compound 242]
60: Plant response rating, Purple nutsedge (purple nutsedge; Rate 250 g/ha) | Plant response rating, Purple nutsedge (purple nutsedge; Rate 500 g/ha) | Plant response rating, Tall Mallow (tall mallow; Rate 250 g/ha)
85: Plant response rating, Alexandergrass (Alexandergrass; [4]) | Plant response rating, Bermudagrass (bermuda-grass; [4]) | Plant response rating, Bermudagrass (bermuda-grass; [5]) | Plant response rating, Dallisgrass (dallisgrass; [4]) | Plant response rating, Goosegrass (goosegrass; [4]) | Plant response rating, Guineagrass (guineagrass; [4]) | Plant response rating, Johnsongrass (Johnson grass; [6]) | Plant response rating, Surinam grass (surinam grass; [4]) | Surinam grass plant response rating (surinam grass; [5]) | Plant response rating, Tall Mallow (tall mallow; Rate 500 g/ha)
20: Plant response rating, P. morninglory (pitted morningglory; [6]) | Plant response rating, P. morninglory (pitted morningglory; Rate 250 g/ha) | Plant response rating, Surinam grass (surinam grass; [3])
98: Plant response rating, Alexandergrass (Alexandergrass; [6]) | Plant response rating, Bermudagrass (bermuda-grass; [6]) | Plant response rating, Dallisgrass (dallisgrass; [5]) | Plant response rating, Dallisgrass (dallisgrass; [6]) | Plant response rating, Guineagrass (guineagrass; [5]) | Plant response rating, Itchgrass (itchgrass; Rate 250 g/ha) | Plant response rating, Johnsongrass (Johnson grass; Rate 250 g/ha)
90: Plant response rating, Large crabgrass (large crabgrass; [3]) | Surinam grass plant response rating (surinam grass; [6])
100: Plant response rating, Alexandergrass (Alexandergrass; [5]) | Plant response rating, Alexandergrass (Alexandergrass; Rate 250 g/ha) | Plant response rating, Alexandergrass (Alexandergrass; Rate 500 g/ha) | Plant response rating, Bermudagrass (bermuda-grass; Rate 250 g/ha) | Plant response rating, Bermudagrass (bermuda-grass; Rate 500 g/ha) | Plant response rating, C. ragweed (common ragweed; [3]) | Plant response rating, C. ragweed (common ragweed; [4]) | Plant response rating, C. ragweed (common ragweed; [5]) | Plant response rating, C. ragweed (common ragweed; [6]) | Plant response rating, C. ragweed (common ragweed; Rate 250 g/ha) | Plant response rating, C. ragweed (common ragweed; Rate 500 g/ha) | Plant response rating, Dallisgrass (dallisgrass; Rate 250 g/ha) | Plant response rating, Dallisgrass (dallisgrass; Rate 500 g/ha) | Plant response rating, Goosegrass (goosegrass; [6]) | Plant response rating, Goosegrass (goosegrass; Rate 250 g/ha) | Plant response rating, Goosegrass (goosegrass; Rate 500 g/ha) | Plant response rating, Guineagrass (guineagrass; [6]) | Plant response rating, Guineagrass (guineagrass; Rate 250 g/ha) | Plant response rating, Guineagrass (guineagrass; Rate 500 g/ha) | Plant response rating, Itchgrass (itchgrass; Rate 500 g/ha) | Plant response rating, Johnsongrass (Johnson grass; Rate 500 g/ha) | Plant response rating, Large crabgrass (large crabgrass; [4]) | Plant response rating, Large crabgrass (large crabgrass; [5]) | Plant response rating, Large crabgrass (large crabgrass; [6]) | Plant response rating, Large crabgrass (large crabgrass; Rate 250 g/ha) | Plant response rating, Large crabgrass (large crabgrass; Rate 500 g/ha) | Plant response rating, P. morninglory (pitted morningglory; Rate 500 g/ha) | Plant response rating, Surinam grass (surinam grass; Rate 250 g/ha) | Plant response rating, Surinam grass (surinam grass; Rate 500 g/ha) | Plant response rating, Green foxtail (Green foxtail [1]; Rate 250 g/ha) | Plant response rating, Green foxtail (Green foxtail [1]; Rate 500 g/ha) | Plant response rating, Green foxtail (Green foxtail [2]; Preemergence; Rate 32 g/ha; 0 to 100 scale, 0 no injury, 100 complete control) | Green foxtail plant response rating (Green foxtail [2]; [7]) | Plant response rating, Green foxtail (Green foxtail [2]; [7]) | Green foxtail plant response rating (Green foxtail [2]; [8]) | Plant response rating, Green foxtail (Green foxtail [2]; [8]) | Plant response rating, Green foxtail (Green foxtail [2]; Rate 250 g/ha; Preemergence; 0 to 100 scale) | Plant response rating, Green foxtail (Green foxtail [2]; Rate 500 g/ha, Preemergence; 0 to 100 scale)
40: Plant response rating, Johnsongrass (Johnson grass; [4]) | Plant response rating, Johnsongrass (Johnson grass; [5]) | Purple nutsedge plant response rating (purple nutsedge; [6])
75: Plant response rating, Goosegrass (goosegrass; [3])
10: Plant response rating, Johnsongrass (Johnson grass; [3]) | Plant response rating, P. morninglory (pitted morningglory; [5])
70: Plant response rating, Guineagrass (guineagrass; [3]) | Plant response rating, Itchgrass (itchgrass; [5])
80: Plant response rating, Bermudagrass (bermuda-grass; [3]) | Plant response rating, Itchgrass (itchgrass; [6]) | Plant response rating, Green foxtail (Green foxtail [2]; Preemergence; Rate 16 g/ha; 0 to 100 scale, 0 no injury, 100 complete control) | Plant response rating, Green foxtail (Green foxtail [2]; Rate 16 g/ha; Preemergence; 0 to 100 scale, 0 no injury, 100 complete control)
65: Plant response rating, Alexandergrass (Alexandergrass; [3]) | Plant response rating, Dallisgrass (dallisgrass; [3]) | Plant response rating, Itchgrass (itchgrass; [3]) | Plant response rating, Itchgrass (itchgrass; [4])
95: Plant response rating, Goosegrass (goosegrass; [5])
0: Plant response rating, C. purslane (common pursiane; [3]) | Plant response rating, C. purslane (common pursiane; [4]) | Plant response rating, C. purslane (common pursiane; [5]) | Plant response rating, C. purslane (common pursiane; [6]) | Plant response rating, C. purslane (common pursiane; Rate 250 g/ha) | Plant response rating, C. purslane (common pursiane; Rate 500 g/ha) | Plant response rating, P. morninglory (pitted morningglory; [3]) | Plant response rating, P. morninglory (pitted morningglory; [4]) | Plant response rating, Purple nutsedge (purple nutsedge; [3]) | Plant response rating, Purple nutsedge (purple nutsedge; [4]) | Purple nutsedge plant response rating (purple nutsedge; [5]) | Plant response rating, Tall Mallow (tall mallow; [3]) | Plant response rating, Tall Mallow (tall mallow; [4]) | Tall Mallow plant response rating (tall mallow; [5]) | Tall Mallow plant response rating (tall mallow; [6])
